Measured values taken from patent US8298781B2, “Compositions and methods for characterizing and regulating olfactory sensation” (Duke University, priority 2007, dated 2012).

System: human subjects
Experiment: Human olfactory psychophysics: detection thresholds (single staircase method)
Assay type: in vivo
Details: for detection threshold, RT/S84N subjects vs RT/RT controls: N=3 RT/S84N; for detection threshold, RT/P79L subjects vs RT/RT subjects: N=12 RT/P79L; for detection threshold, OR7D4 RT/WM vs RT/RT subjects: binary dilutions in propylene glycol, N=49 RT/WM, N=47 RT/RT
Protocol: Human olfactory psychophysics. All human subjects gave informed consent to participate in this study and were tested in a well-ventilated room. Normal human subjects (n=412; 218 female, 194 male; median age 34, age range 19-75) were pre-screened to exclude pregnant women and those with medical conditions causing general impairment of the sense of smell. All subjects completed two replicates of the test separated by at least 4 days. Odors were presented in amber vials as previously described (see, e.g., Keller, A., et al., Nat Neurosci 7, 337-338 (2004); herein incorporated by reference in its entirety) using bar-coded symbols to ensure that subjects were blind to the identity of all odors. The intensity and valence of 66 odors at two concentrations (“high” and “low”) and two solvents was rated using a 7-point scale. Thresholds were calculated using the single staircase method with seven reversals (see, e.g., Doty, R. L., et al., Chem Senses 20, 645-656 (1995); Doty, R. L. & Laing, D. G. in Handbook of Olfaction and Gustation (ed. Doty, R. L.) pp. 203-228 (Marcel Dekker, Inc., New York, 2003); each of which are herein incorporated by reference in their entireties). Threshold tests included both steroids as binary dilutions from […] (binary dilution 6) to 1: 134,217,728 (binary dilution 27). Subjects who could not reliably distinguish a 1:64 dilution of androstenone and androstadienone from solvent were operationally defined as anosmic to these odorous steroids, although it could not be excluded that these subjects could detect higher concentrations of these steroids (see, e.g., Bremner, E. A., et al., Chem Senses 28, 423-432 (2003); herein incorporated by reference in its entirety). Odor profiling used the method established by Dravnieks, et al. (see, e.g., Dravnieks, A., et al., Science 218, 799-801 (1982); herein incorporated by reference in its entirety).
For the descriptors task, the following odors and concentrations were used: propylene glcol (pure), pentadecalactone 1/500, vanillin 1/200, and androstenone 1/10,000. The following odors were used for thresholding: adrostenone and androstadienone. These were tested at an initial concentration of binary dilution 27 […] in propylene glycol and moved from there in binary steps. The range of dilutions tested was from binary dilution 27 (1:134,217,728) to binary dilution 6 (1:64). Odor vials used for intensity and valence ratings and the assigning of descriptors to odors were used for 40 sessions and then replaced by a new set. Master stocks of each odor were established at the beginning of the study to avoid intertrial variability in odor concentrations.
Threasholding. Detection thresholds (FIG. 3c and FIG. 5b-c) were determined using the “Single Staircase Threshold Detection Method” (see, e.g., Buck, L., et al., Cell 65, 175-187 (1991); Menashe, I., et al., Nat Genet. 34, 143-144 (2003); each of which are herein incorporated by reference in their entireties). This method produced very accurate data on the threshold concentration of a given dour and was easy to administer and for the subjects to perform. The thresholds for each subject on two occasions was tested at least four days apart. This helped to control for inter-trial variability in olfactory performance. The average difference between the thresholds determined on the two days was three binary dilution steps for andmstenone and five for androstadienone.
A custom computer-controlled thresholding test was administered as a self-test to each subject. Briefly, subjects were instructed to sniff two vials, one containing the solvent, the other a dilution of the odorant. Both vials have barcode labels and the procedure was done at a computer equipped with a scanner. Subjects are asked to scan the vial with the stronger odor. Depending on their answer, the procedure was repeated at an adjusted concentration. […]

SMILES	detection threshold, RT/S84N subjects vs RT/RT controls	detection threshold, RT/P79L subjects vs RT/RT subjects	detection threshold, OR7D4 RT/WM vs RT/RT subjects	incidence of specific anosmia, OR7D4 RT/WM vs RT/RT subjects (p<0.05, chi-square test)	proportion of subjects anosmic, RT/P79L vs RT/RT subjects (p=0.018, chi-square analysis)
C[C@@]12C=CC[C@H]1[C@@H]1CCC3=CC(=O)CC[C@]3(C)[C@H]1CC2 [androstadienone, androsta-4,16-dien-3-one]	higher	lower	higher detection thresholds	–	–
C[C@]12CCC(=O)C[C@@H]1CC[C@@H]1[C@@H]2CC[C@]2(C)C=CC[C@@H]12 [androstenone, 5α-androst-16-en-3-one]	higher	lower	higher detection thresholds	greater incidence	lower
